From ChEMBL document CHEMBL1201862, “PubChem BioAssay data set” (2004)
The source made the active and inactive calls.

Assays:
[1] = inhibitors of firefly luciferase expression or activity, dose response, H4 neuroglioma cells, luminescence (AID 1990); format: functional, cell-based
cells [2] = format: functional, cell-based
[3] = Luminescence Cell-Based Dose Response HTS to Identify Inhibitors of 5'UTR Stem-Loop Driven Prion Protein mRNA Translation in H4 Neuroglioblastoma Cells. [Related pubchem assays: 1827 (Project Summary), 1813 (Primary HTS)]; format: functional
Beta-galactosidase = Beta-galactosidase (Escherichia coli, UniProt Q8VNN2); test: PubChem AID 485352; format: functional
Chain of Beta-galactosidase (Q8VNN2 whole entry): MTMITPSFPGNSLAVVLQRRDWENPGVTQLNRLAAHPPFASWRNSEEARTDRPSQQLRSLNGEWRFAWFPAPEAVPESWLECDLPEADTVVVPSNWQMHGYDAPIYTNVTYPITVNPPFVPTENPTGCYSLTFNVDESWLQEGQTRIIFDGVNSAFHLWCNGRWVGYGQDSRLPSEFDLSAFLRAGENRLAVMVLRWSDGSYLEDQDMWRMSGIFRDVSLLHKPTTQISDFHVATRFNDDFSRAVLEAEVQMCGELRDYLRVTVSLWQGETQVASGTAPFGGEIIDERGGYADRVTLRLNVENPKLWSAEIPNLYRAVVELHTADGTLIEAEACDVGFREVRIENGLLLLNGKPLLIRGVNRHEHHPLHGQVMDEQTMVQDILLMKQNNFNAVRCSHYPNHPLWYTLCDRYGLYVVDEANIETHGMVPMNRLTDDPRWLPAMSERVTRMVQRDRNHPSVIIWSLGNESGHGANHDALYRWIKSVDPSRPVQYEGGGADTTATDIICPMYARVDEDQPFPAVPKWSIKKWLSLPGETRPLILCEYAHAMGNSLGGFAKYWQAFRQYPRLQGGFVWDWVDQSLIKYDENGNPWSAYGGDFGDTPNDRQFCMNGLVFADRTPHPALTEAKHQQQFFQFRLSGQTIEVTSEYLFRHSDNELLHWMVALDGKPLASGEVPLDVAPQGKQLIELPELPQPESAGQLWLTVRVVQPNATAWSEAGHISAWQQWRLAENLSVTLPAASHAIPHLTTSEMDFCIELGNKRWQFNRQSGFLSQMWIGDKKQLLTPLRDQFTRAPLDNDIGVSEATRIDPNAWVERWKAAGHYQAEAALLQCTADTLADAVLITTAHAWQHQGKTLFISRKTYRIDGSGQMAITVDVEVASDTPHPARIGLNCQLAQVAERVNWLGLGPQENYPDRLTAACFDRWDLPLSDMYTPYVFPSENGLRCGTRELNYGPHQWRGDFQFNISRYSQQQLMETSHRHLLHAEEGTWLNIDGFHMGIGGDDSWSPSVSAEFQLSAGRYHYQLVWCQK

[4] = inhibitors of SNCA 5'UTR-driven reporter translation, confirmation, H4 neuroglioma cells, luminescence (AID 1988); format: functional, cell-based
[5] = molecular target: T1, Type-1 angiotensin II receptor (Homo sapiens, UniProt P30556); test: AT1 receptor antagonists, dose response, selectivity assay for APJ receptor antagonist project, cell-based, uHTS hits (AID 463214); format: functional;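 also: antagonist potency against angiotensin II stimulated AT1 response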
T1 sequence (P30556 whole entry): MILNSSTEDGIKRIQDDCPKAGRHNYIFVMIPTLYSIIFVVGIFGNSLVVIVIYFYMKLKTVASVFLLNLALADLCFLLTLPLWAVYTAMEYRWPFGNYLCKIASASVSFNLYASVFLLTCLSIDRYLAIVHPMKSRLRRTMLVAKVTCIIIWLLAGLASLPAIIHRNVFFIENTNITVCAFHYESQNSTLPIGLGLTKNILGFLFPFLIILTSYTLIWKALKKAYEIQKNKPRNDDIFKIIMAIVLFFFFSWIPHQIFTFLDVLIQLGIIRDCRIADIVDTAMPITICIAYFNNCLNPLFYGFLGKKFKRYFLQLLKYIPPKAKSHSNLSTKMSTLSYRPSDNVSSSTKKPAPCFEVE

cells [6] = format: functional, cell-based; remark: listed apart in the source
Nonstructural protein 1 = Nonstructural protein 1 (Influenza A virus, UniProt Q194T2); format: functional, Influenza A virus (A/California/07/2009(H1N1))
Chain of Nonstructural protein 1 (Q194T2 whole entry): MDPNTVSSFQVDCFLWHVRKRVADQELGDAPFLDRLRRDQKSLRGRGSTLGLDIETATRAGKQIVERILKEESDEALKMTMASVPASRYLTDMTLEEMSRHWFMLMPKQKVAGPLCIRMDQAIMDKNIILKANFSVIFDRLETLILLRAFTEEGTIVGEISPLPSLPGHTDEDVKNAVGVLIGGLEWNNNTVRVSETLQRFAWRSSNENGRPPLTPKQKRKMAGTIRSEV

INS1 = test: beta cell apoptosis inhibitors, cytokine rescue, dose response, luminescence, retest (AID 449756); format: functional, cell-based; conditions: Rattus norvegicus;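 also: cell death triggered by IL-1 beta plus TNF-alpha plus IFN-gamma mixture; protective hits raise ATP signal compared with cytokine alone wells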
[7] = molecular target: Dual specificity tyrosine-phosphorylation-regulated kinase 1A (Rattus norvegicus, UniProt Q63470); format: biochemical, Homo sapiens
HEK293 [8] = test: NOD1 signaling inhibitors, primary screen, cell-based, luminescence, uHTS (AID 1578); format: functional; conditions: Homo sapiens
[9] = system: Streptococcus sp. 'group A'; test: growth inhibition of control SK(-) GAS strain, dose response, counter-screen for streptokinase expression inhibitor project, luminescence, kanamycin, BacTiterGlo, confirmation (AID 1900); format: functional, organism-based
HEK293 [10] = test: cells; format: functional, cell-based; conditions: Homo sapiens
Streptokinase A = molecular target: T2, Streptokinase A (Streptococcus pyogenes serotype M1, UniProt P10520); test: S. pyogenes streptokinase expression inhibitors, potency, dose response, plasminogen activation absorbance, OD405 (AID 1914); format: functional, Streptococcus pyogenes M1 GAS;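 also: secreted streptokinase activity via plasminogen activation per viability signal from cell pellet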
T2 sequence (P10520 whole entry): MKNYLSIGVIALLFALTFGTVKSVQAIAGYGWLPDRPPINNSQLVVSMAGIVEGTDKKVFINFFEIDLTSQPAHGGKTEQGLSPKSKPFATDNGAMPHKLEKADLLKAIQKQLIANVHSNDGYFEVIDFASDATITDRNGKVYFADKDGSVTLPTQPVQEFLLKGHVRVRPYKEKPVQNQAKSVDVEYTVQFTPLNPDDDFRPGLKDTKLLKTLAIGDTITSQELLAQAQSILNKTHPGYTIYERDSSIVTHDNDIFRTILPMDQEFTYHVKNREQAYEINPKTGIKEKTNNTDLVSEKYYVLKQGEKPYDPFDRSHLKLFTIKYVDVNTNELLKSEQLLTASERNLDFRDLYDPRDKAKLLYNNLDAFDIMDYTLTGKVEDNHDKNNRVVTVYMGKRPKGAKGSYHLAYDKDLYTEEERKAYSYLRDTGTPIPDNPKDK

HEK293 [11] = test: cells; format: functional, cell-based; conditions: Homo sapiens; remark: listed apart in the source
[12] = microbe, parasite or virus in culture; format: functional; conditions: Mycobacterium tuberculosis
Streptococcus = test: Group A Streptococcus viability loss, dose response, counter-screen for streptokinase expression inhibitor project, luminescence, BacTiterGlo (AID 1915); format: functional, organism-based;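 also: potency for reduction of bacterial viability or growth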
Bcl-2-related protein A1 = molecular target: T3, Bcl-2-related protein A1 (Mus musculus, UniProt Q07440); format: functional;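 also: confirmatory dose–response counterscreen on Bfl-1, used to check hits from a UBC13 polyubiquitin inhibitor campaign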
T3 sequence (Q07440 whole entry): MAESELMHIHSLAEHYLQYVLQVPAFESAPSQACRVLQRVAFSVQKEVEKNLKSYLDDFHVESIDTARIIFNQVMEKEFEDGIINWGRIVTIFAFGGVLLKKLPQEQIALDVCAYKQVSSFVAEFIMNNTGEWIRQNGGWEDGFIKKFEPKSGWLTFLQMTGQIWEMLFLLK

[13] = molecular target: T4, Ubiquitin-conjugating enzyme E2 N (Homo sapiens, UniProt P61088); format: functional
T4 sequence (P61088 whole entry): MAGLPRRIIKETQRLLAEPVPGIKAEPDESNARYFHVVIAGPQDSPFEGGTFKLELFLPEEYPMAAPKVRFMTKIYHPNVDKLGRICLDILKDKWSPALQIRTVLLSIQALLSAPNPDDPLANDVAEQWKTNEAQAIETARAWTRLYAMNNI

[14] = molecular target: T4, Ubiquitin-conjugating enzyme E2 N; format: functional; remark: listed apart in the source
HEK293 [15] = test: inhibitors of LMP1-driven NF-kB reporter, dose response, cell-based, HEK293, luciferase, cherry-pick (AID 588343); format: functional, Homo sapiens; conditions: Homo sapiens, HEK293
[16] = molecular target: Dual specificity protein kinase CLK1 (Homo sapiens, UniProt P49759); test: CLK1 kinase inhibitors, off-target check, dose response, selectivity assay for Dyrk1A inhibitor project, biochemical, cherry-picked samples (AID 588811)
Chain of Dual specificity protein kinase CLK1 (P49759 whole entry): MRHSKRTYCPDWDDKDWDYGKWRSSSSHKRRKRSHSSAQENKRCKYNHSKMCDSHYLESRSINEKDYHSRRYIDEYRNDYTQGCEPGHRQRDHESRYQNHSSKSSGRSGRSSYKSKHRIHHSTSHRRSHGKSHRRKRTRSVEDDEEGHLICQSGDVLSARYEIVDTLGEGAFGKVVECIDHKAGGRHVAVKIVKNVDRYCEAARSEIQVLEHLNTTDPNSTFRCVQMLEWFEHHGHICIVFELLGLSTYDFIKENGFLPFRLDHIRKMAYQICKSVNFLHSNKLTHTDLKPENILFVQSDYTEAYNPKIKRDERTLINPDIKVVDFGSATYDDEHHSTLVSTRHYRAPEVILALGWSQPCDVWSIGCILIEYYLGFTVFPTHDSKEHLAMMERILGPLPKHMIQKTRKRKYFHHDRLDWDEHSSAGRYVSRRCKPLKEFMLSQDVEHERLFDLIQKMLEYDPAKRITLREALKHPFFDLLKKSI

[17] = Shn3 3'UTR reporter inhibitors, dose response, cell-based, Clone20 osteoblasts, firefly luciferase, cherry-picked (AID 624132); format: functional;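 also: firefly luciferase luminescence from reporter carrying the Shn3 3'UTR in osteoblasts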
[18] = HepG2 cell cytotoxicity, dose response, cytotoxicity control for Shn3 inhibitor project, CellTiter-Glo, cherry-picked (AID 624134); format: functional, cell-based
[19] = control 3'UTR Renilla luciferase suppression, dose response, counter-screen for Shn3 inhibitor project, cell-based, Clone20-Shn3RL, cherry-picked (AID 624133); format: functional
[20] = molecular target: Hepatocyte nuclear factor 4-alpha (Homo sapiens, UniProt P41235); format: functional, cell-based;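 also: biochemical luminescence-based dose-response counterscreen measuring inhibition of HNF4 dimerization, run alongside a screen for blockers of ABHD5–perilipin-5 interaction; split luciferase complementation of HNF4 fusion proteins in cell lysate measuring dimerization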
Chain of Hepatocyte nuclear factor 4-alpha (P41235 whole entry, the tested form may be a part): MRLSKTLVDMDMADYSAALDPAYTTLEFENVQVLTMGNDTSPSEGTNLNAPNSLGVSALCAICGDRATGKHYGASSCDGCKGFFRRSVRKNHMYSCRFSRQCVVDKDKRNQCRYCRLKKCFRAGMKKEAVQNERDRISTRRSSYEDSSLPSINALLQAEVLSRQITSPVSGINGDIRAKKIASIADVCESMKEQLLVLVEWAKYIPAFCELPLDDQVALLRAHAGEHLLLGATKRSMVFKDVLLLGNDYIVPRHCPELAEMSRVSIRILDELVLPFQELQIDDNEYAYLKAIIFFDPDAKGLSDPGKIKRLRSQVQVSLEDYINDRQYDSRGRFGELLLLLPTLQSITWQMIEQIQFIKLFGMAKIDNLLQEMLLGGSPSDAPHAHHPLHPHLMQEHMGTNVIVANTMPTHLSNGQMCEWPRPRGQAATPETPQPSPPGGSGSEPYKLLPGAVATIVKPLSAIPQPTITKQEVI

[21] = HeLa cell cytotoxicity, dose response, cytotoxicity control for MgcRacGAP inhibitor project (AID 624300); format: functional
[22] = molecular target: T5, Rac GTPase-activating protein 1 (Homo sapiens, UniProt Q9H0H5); test: MgcRacGAP GTPase-activating activity inhibitors, confirmation, biochemical, ADP Hunter fluorescence, primary and confirmatory (AID 624330); format: functional
T5 sequence (Q9H0H5 whole entry): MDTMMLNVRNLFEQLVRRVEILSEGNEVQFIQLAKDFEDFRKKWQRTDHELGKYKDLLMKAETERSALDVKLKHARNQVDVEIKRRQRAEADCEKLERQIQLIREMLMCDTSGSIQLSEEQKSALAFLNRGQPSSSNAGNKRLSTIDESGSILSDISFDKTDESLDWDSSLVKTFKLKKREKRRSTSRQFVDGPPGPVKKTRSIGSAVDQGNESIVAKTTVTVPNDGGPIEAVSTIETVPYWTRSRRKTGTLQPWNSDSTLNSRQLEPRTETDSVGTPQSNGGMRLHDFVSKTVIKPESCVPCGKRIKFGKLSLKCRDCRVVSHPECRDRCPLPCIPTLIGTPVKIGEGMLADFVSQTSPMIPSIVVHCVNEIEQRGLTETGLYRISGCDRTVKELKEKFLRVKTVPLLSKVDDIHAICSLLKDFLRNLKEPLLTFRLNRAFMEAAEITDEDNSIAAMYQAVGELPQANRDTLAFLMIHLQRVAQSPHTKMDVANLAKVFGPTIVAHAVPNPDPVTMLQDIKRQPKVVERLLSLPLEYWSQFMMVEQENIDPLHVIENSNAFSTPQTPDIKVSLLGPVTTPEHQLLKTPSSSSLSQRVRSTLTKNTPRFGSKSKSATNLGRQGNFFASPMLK

[23] = molecular target: T6, Replicative DNA helicase DnaB (Mycobacterium tuberculosis, UniProt P9WMR3); test: DnaB intein splicing inhibitors, dose response, biochemical, cell-free fluorescence (AID 449749); format: functional
T6 sequence (P9WMR3 whole entry): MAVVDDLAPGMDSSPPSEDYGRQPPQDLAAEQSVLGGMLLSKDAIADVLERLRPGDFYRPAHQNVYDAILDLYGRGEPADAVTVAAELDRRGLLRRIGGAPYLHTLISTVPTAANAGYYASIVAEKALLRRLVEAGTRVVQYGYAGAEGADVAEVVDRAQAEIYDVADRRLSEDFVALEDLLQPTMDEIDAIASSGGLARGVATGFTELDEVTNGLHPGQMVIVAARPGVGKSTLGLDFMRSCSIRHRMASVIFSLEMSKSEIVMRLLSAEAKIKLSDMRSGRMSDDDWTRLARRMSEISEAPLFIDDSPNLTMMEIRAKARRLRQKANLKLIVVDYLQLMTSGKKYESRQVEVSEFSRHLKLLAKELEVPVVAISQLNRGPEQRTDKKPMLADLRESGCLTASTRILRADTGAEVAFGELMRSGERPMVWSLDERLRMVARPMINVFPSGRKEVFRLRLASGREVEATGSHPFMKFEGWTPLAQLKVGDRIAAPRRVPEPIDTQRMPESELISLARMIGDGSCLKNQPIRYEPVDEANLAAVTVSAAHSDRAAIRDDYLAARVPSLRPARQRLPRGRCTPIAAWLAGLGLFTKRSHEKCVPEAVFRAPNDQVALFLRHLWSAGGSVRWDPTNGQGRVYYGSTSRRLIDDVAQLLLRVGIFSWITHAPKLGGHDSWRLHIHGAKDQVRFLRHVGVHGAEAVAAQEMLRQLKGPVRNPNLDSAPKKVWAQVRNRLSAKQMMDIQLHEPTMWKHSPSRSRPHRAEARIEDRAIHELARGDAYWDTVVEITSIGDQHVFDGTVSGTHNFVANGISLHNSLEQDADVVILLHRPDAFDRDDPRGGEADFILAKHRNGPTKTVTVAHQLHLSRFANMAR

[24] = molecular target: Apoptotic protease-activating factor 1 (Homo sapiens, UniProt O14727); format: functional
Chain of Apoptotic protease-activating factor 1 (O14727 whole entry): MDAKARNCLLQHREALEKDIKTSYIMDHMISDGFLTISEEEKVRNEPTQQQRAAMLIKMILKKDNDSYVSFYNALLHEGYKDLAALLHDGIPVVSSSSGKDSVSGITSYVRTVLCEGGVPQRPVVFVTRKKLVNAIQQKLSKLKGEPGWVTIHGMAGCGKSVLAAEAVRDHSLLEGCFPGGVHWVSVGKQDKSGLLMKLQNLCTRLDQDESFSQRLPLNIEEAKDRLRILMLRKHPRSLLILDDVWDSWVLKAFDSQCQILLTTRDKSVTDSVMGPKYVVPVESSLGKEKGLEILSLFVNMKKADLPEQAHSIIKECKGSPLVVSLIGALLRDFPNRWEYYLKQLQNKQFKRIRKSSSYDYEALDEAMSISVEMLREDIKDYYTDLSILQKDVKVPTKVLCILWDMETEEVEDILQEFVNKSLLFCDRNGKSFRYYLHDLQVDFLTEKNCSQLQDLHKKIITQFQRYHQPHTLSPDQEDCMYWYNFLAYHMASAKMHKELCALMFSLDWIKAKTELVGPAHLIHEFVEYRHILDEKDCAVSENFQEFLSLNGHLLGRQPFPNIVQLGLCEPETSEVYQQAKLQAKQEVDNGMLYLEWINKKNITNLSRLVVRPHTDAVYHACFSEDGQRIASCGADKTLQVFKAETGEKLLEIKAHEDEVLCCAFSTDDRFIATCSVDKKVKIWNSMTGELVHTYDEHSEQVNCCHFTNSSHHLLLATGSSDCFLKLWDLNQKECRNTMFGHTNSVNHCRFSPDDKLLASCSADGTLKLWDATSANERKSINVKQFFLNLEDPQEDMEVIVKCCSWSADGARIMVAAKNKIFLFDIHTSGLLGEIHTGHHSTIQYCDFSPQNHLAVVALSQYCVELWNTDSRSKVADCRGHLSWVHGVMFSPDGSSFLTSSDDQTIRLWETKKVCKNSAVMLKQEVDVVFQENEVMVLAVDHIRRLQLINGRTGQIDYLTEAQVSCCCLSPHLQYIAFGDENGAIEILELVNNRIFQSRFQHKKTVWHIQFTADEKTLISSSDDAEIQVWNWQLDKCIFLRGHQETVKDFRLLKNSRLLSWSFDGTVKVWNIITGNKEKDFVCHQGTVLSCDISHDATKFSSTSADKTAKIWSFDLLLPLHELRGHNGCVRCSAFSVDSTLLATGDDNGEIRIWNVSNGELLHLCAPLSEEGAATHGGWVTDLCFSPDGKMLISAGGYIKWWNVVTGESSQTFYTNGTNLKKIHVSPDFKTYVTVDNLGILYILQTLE

Protein RecA = molecular target: T7, Protein RecA (Mycobacterium tuberculosis, UniProt P9WHJ3); test: Fluorescence Cell-Free Homogeneous Dose Retest to Identify Inhibitors of RecA-Intein Splicing Activity. [Related pubchem assays (depositor defined):AID2097, AID2223, AID489010, AID492950]; format: functional
T7 sequence (P9WHJ3 whole entry): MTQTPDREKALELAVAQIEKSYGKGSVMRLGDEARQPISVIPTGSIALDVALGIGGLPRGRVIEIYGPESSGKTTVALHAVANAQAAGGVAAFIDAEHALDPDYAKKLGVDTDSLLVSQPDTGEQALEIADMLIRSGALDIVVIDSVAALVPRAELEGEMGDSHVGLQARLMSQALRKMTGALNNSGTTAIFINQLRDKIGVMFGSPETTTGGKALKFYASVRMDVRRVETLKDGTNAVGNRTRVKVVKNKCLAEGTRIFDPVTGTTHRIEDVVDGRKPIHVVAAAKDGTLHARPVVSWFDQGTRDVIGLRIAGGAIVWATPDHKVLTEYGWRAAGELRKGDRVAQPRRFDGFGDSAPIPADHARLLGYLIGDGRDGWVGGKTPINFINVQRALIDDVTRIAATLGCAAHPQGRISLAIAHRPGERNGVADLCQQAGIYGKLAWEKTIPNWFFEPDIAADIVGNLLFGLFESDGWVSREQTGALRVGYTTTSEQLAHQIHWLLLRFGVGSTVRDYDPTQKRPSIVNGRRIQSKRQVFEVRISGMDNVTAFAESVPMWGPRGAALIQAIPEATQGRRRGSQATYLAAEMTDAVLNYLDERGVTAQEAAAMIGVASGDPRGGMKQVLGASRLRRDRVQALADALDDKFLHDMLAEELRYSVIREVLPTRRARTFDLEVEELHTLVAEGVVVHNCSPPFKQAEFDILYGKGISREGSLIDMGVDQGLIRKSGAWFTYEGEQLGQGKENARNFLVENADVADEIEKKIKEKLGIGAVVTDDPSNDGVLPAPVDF

With `Cc1ncc(CO)c(/C=N/Nc2ccc(C(F)(F)F)cn2)c1O` the EC50 [1] was 5.4 µM (active), the EC50 (cells [2]) was 8.1 µM (active) and the EC50 [3] was 1.01 µM (active). The EC50 (Beta-galactosidase) was > 40 µM (inactive), the EC50 [4] was 0.907 µM (active) and the IC50 [5] was 28.7 µM (not active). For the same molecule, the EC50 (cells [6]) was > 350 µM (not active), the IC50 (Nonstructural protein 1) was 7.34 µM (active) and the AC50 (INS1) was 0.944 µM (active). The AC50 [7] was 5.06 µM (active).
With `CCN1CCN(Cc2ccc(NC(=O)c3ccc(C)c(/C=C/c4cnc(Nc5cc(N6CCNCC6)nc(C)n5)cn4)c3)cc2C(F)(F)F)CC1` the EC50 [1] was 0.424 µM (inconclusive), the EC50 (HEK293 [8]) was 7.23 µM (active) and the EC50 [9] was 6.36 µM (active). For the same molecule, the IC50 (HEK293 [10]) was > 20 µM (inactive), the EC50 (Streptokinase A) was 86.5 µM (active) and the IC50 (HEK293 [11]) was > 20 µM (inactive). The CC50 [12] was 6.89 µM (active), the EC50 (Streptococcus) was > 150 µM (not active) and the IC50 (Bcl-2-related protein A1) was > 20 µM (inactive). The IC50 [13] was 9.4 µM (active), the IC50 [14] was 11.1 µM (active) and the AC50 (HEK293 [15]) was 0.725 µM (active). The AC50 [16] was 1.99 µM (active), the AC50 [7] was 12.8 µM (active) and the AC50 [17] was 9.56 µM (active). The AC50 [18] was 19.6 µM (active), the AC50 [19] was 27.6 µM (active) and the IC50 [20] was 5.88 µM (active). The CC50 [21] was 21.6 µM (active) and the IC50 [22] was 41 µM (active).
For `Cc1nn(-c2ccccc2)c(O)c1/C=N/NC(=O)c1ccc(O)cc1O`, the IC50 (Nonstructural protein 1) was 3.09 µM (active), the AC50 [23] was 2.5 µM (active) and the IC50 [24] was 5.15 µM (active). For the same molecule, the EC50 (Protein RecA) was 3.13 µM (active).
